According to PubChem BioAssay AID1963444 (Molecular Pharmacology Branch, DTP, NCI, 2024):
pIC50: −log10 of the molar value.

Tested on: HSSY-II complex spheroid growth, percent test/control
Test: Anticancer human tumor HSSY-II cell line growth inhibition [Asc];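 note: spheroids exposed to drug for 7 days before reading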
Details: for pIC50: curve of first compound; for viability, T/C: stronger effect = lower value
Summary of the method: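 Spheroid model: tumor line + HUVEC + hMSC. Single agents and combinations; top conc. at/near clinical Cmax (10 microM if undetermined), half-log dilutions. DMSO stocks at 800-fold test concentration.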

How did the pIC50 (second compound 0.01 µM) turn out when `COc1c(OCCCN2CCOCC2)ccc2c3n(c(=NC(=O)c4cnc(N)nc4)nc12)CCN3` + CNC(C)C(=O)NC1CN(S(=O)(=O)c2cccc(S(=O)(=O)N3CCC4CCC(C(=O)NC(c5ccccc5)c5ccccc5)N4C(=O)C(NC(=O)C(C)NC)C3)c2)CCC2CCC(C(=O)NC(c3ccccc3)c3ccccc3)N2C1=O was run?
Its pIC50 is 7.36.

And the pIC50 (second compound 0.0316 µM)?
Its pIC50 is 7.35.

What about the pIC50 (second compound 0.1 µM) of the same molecule?
Its pIC50 is 7.46.

And the pIC50 (second compound 0.316 µM)?
The pIC50 was 7.34.

What about the pIC50 (second compound 1 µM) of the same molecule?
The pIC50 was 7.27.

And the viability, T/C (second compound 0.01 µM, first compound 0.00316 µM)?
The viability, T/C was 84.3%.

What about the viability, T/C (second compound 0.01 µM, first compound 0.01 µM) of the same molecule?
The viability, T/C was 79.6%.

What about the viability, T/C (second compound 0.01 µM, first compound 0.0316 µM) of the same molecule?
Its viability, T/C is 51.4%.

And the viability, T/C (second compound 0.01 µM, first compound 0.1 µM)?
Its viability, T/C is 36.8%.

And the viability, T/C (second compound 0.01 µM, first compound 0.316 µM)?
Its viability, T/C is 22.4%.

And the viability, T/C (second compound 0.01 µM, first compound 1 µM)?
Its viability, T/C is 12%.

And the viability, T/C (second compound 0.0316 µM, first compound 0.00316 µM)?
The viability, T/C was 82%.

What about the viability, T/C (second compound 0.0316 µM, first compound 0.01 µM) of the same molecule?
The viability, T/C was 77.5%.

And the viability, T/C (second compound 0.0316 µM, first compound 0.0316 µM)?
The viability, T/C was 54.8%.

What about the viability, T/C (second compound 0.0316 µM, first compound 0.1 µM) of the same molecule?
The viability, T/C was 34.3%.

And the viability, T/C (second compound 0.0316 µM, first compound 0.316 µM)?
Its viability, T/C is 21.8%.

What about the viability, T/C (second compound 0.0316 µM, first compound 1 µM) of the same molecule?
Its viability, T/C is 9.94%.

What about the viability, T/C (second compound 0.1 µM, first compound 0.00316 µM) of the same molecule?
Its viability, T/C is 81.2%.

What about the viability, T/C (second compound 0.1 µM, first compound 0.01 µM) of the same molecule?
Its viability, T/C is 64.9%.

And the viability, T/C (second compound 0.1 µM, first compound 0.0316 µM)?
The viability, T/C was 49%.

And the viability, T/C (second compound 0.1 µM, first compound 0.1 µM)?
Its viability, T/C is 38.8%.

And the viability, T/C (second compound 0.1 µM, first compound 0.316 µM)?
Its viability, T/C is 24.7%.

And the viability, T/C (second compound 0.1 µM, first compound 1 µM)?
The viability, T/C was 10.4%.

What about the viability, T/C (second compound 0.316 µM, first compound 0.00316 µM) of the same molecule?
Its viability, T/C is 86.4%.

And the viability, T/C (second compound 0.316 µM, first compound 0.01 µM)?
Its viability, T/C is 80.1%.

What about the viability, T/C (second compound 0.316 µM, first compound 0.0316 µM) of the same molecule?
The viability, T/C was 53.8%.

What about the viability, T/C (second compound 0.316 µM, first compound 0.1 µM) of the same molecule?
Its viability, T/C is 34.5%.

What about the viability, T/C (second compound 0.316 µM, first compound 0.316 µM) of the same molecule?
Its viability, T/C is 24.2%.

What about the viability, T/C (second compound 0.316 µM, first compound 1 µM) of the same molecule?
Its viability, T/C is 8.5%.

And the viability, T/C (second compound 1 µM, first compound 0.00316 µM)?
Its viability, T/C is 80.1%.

And the viability, T/C (second compound 1 µM, first compound 0.01 µM)?
Its viability, T/C is 73.8%.

What about the viability, T/C (second compound 1 µM, first compound 0.0316 µM) of the same molecule?
The viability, T/C was 63.2%.

What about the viability, T/C (second compound 1 µM, first compound 0.1 µM) of the same molecule?
Its viability, T/C is 33.7%.

What about the viability, T/C (second compound 1 µM, first compound 0.316 µM) of the same molecule?
The viability, T/C was 24.7%.

What about the viability, T/C (second compound 1 µM, first compound 1 µM) of the same molecule?
Its viability, T/C is 9.52%.

With `CCN1C(C(=O)NC23CCC(C(=O)O)(CC2)CC3)C(c2cccc(Cl)c2F)C2(C(=O)Nc3cc(Cl)ccc32)C12CCCCC2` (stereo not given) + Cc1c(S(C)(=O)=O)c(-c2cc(F)cc(N3CCN(c4ccc(NS(=O)(=O)c5ccc(NC(CCN6CCC(C(=O)OCCCP(=O)(O)O)CC6)CSc6ccccc6)c(S(=O)(=O)C(F)(F)F)c5)cc4)CC3)c2)c(-c2ccc(Cl)cc2)n1C(C)C as the molecule, how does the pIC50 (second compound 0.1 µM) read?
Its pIC50 is 7.00.

What about the pIC50 (second compound 0.316 µM) of the same molecule?
The pIC50 was 7.23.

What about the pIC50 (second compound 1 µM) of the same molecule?
The pIC50 was 7.08.

And the pIC50 (second compound 3.16 µM)?
Its pIC50 is 7.27.

What about the pIC50 (second compound 10 µM) of the same molecule?
The pIC50 was 7.27.

And the viability, T/C (second compound 0.1 µM, first compound 0.00949 µM)?
Its viability, T/C is 106%.

And the viability, T/C (second compound 0.1 µM, first compound 0.03 µM)?
Its viability, T/C is 92.7%.

What about the viability, T/C (second compound 0.1 µM, first compound 0.0949 µM) of the same molecule?
Its viability, T/C is 49.4%.

And the viability, T/C (second compound 0.1 µM, first compound 0.3 µM)?
The viability, T/C was 19.4%.

And the viability, T/C (second compound 0.1 µM, first compound 0.949 µM)?
The viability, T/C was 3.79%.

What about the viability, T/C (second compound 0.1 µM, first compound 3 µM) of the same molecule?
The viability, T/C was 0.58%.

What about the viability, T/C (second compound 0.316 µM, first compound 0.00949 µM) of the same molecule?
The viability, T/C was 102%.

And the viability, T/C (second compound 0.316 µM, first compound 0.03 µM)?
Its viability, T/C is 78.1%.

And the viability, T/C (second compound 0.316 µM, first compound 0.0949 µM)?
Its viability, T/C is 29.7%.

And the viability, T/C (second compound 0.316 µM, first compound 0.3 µM)?
The viability, T/C was 11.1%.

What about the viability, T/C (second compound 0.316 µM, first compound 0.949 µM) of the same molecule?
Its viability, T/C is 3.4%.

What about the viability, T/C (second compound 0.316 µM, first compound 3 µM) of the same molecule?
Its viability, T/C is 0.3%.

And the viability, T/C (second compound 1 µM, first compound 0.00949 µM)?
Its viability, T/C is 104%.

What about the viability, T/C (second compound 1 µM, first compound 0.03 µM) of the same molecule?
Its viability, T/C is 84.6%.

And the viability, T/C (second compound 1 µM, first compound 0.0949 µM)?
Its viability, T/C is 47.4%.

And the viability, T/C (second compound 1 µM, first compound 0.3 µM)?
Its viability, T/C is 9.68%.

What about the viability, T/C (second compound 1 µM, first compound 0.949 µM) of the same molecule?
The viability, T/C was 1.67%.

What about the viability, T/C (second compound 1 µM, first compound 3 µM) of the same molecule?
The viability, T/C was 0.19%.

What about the viability, T/C (second compound 3.16 µM, first compound 0.00949 µM) of the same molecule?
Its viability, T/C is 94.3%.

What about the viability, T/C (second compound 3.16 µM, first compound 0.03 µM) of the same molecule?
Its viability, T/C is 73.3%.

What about the viability, T/C (second compound 3.16 µM, first compound 0.0949 µM) of the same molecule?
Its viability, T/C is 28%.

And the viability, T/C (second compound 3.16 µM, first compound 0.3 µM)?
The viability, T/C was 4.69%.

What about the viability, T/C (second compound 3.16 µM, first compound 0.949 µM) of the same molecule?
The viability, T/C was 1.19%.

What about the viability, T/C (second compound 3.16 µM, first compound 3 µM) of the same molecule?
Its viability, T/C is 0.17%.

What about the viability, T/C (second compound 10 µM, first compound 0.00949 µM) of the same molecule?
The viability, T/C was 92.8%.

And the viability, T/C (second compound 10 µM, first compound 0.03 µM)?
Its viability, T/C is 73.6%.

And the viability, T/C (second compound 10 µM, first compound 0.0949 µM)?
The viability, T/C was 27.2%.

What about the viability, T/C (second compound 10 µM, first compound 0.3 µM) of the same molecule?
The viability, T/C was 4.78%.

What about the viability, T/C (second compound 10 µM, first compound 0.949 µM) of the same molecule?
Its viability, T/C is 1.16%.

And the viability, T/C (second compound 10 µM, first compound 3 µM)?
Its viability, T/C is 0.26%.
